Measurements as given in patent publication US8778896B2, “Levoisovalerylspiramycin I, II or III, preparations, preparation methods and uses thereof” (Shenyang Tonglian Group Co., Ltd., priority 2010, dated 2014).

Tests used:
[1] = tested on: streptococcus pneumoniae18; assay: Curative effect on mouse with abdominal infection (ED50); assay type: in vivo, streptococcus pneumoniae; details: streptococcus pneumoniae18, challenging dose 9.6 × 10^4 CFU/0.5 ml, deaths in 7 days, Bliss
Procedure: (§1) Test method: preparation of infection bacterial liquid: taking out the test bacterial liquid which is kept in a refrigerator at −80[…] to room temperature for about 1 h, then inoculating streptococcus pneumonia, pyogenic streptococcus and enterococcus absorbing 0.1 ml bacterial liquid respectively to 2 ml MH broth (add 10% inactivated horse serum), and inoculating 0.1 ml bacterial liquid of staphylococcus aureus to 2 ml MH broth according to the same method above; putting it in an incubator at 37[…] to be cultivated for 18 h, to obtain original bacterial liquid; diluting the original bacterial liquid with 5% gastric mucin to make animals infected with 100% lethal bacteria, to obtain infection bacterial liquid.
(§2) The clinical route of administration of carrimycin is proposed to be oral administration, thus intragastric administration is adopted in carrimychin test. Levoisovalerylspiramycin I (obtained in Embodiment 1) and of crystalline compound of levoisovalerylspiramycin I (prepared in Embodiment 27) are fed to animals via […].
(§3) After the mice are infected, respectively feed each mouse 0.2 ml via intragastric administration at 0.5 to 6 h, and they have no adverse reaction. Observe the number of deaths in 7 days, and calculate the 50% effective dose (ED50) of each drug for the infected mouse and compare the protective effect of drugs by Bliss program.

[2] = tested on: streptococcus pneumoniae3; assay: as above; assay type: in vivo, streptococcus pneumoniae; details: streptococcus pneumoniae3, challenging dose 6.4 × 10^4 CFU/0.5 ml, deaths in 7 days, Bliss
Procedure: as §1, §2, §3

[3] = tested on: streptococcus pneumoniae57; assay: as above; assay type: in vivo, streptococcus pneumoniae; details: streptococcus pneumoniae57, challenging dose 8.8 × 10^4 CFU/0.5 ml, deaths in 7 days, Bliss
Procedure: as §1, §2, §3

[4] = tested on: pyogenic streptococcus 102; assay: as above; assay type: in vivo; details: pyogenic streptococcus 102, challenging dose 7.8 × 10^4 CFU/0.5 ml, deaths in 7 days, Bliss
Procedure: as §1, §2, §3

[5] = tested on: pyogenic streptococcus 119; assay: as above; assay type: in vivo; details: pyogenic streptococcus 119, challenging dose 4.9 × 10^4 CFU/0.5 ml, deaths in 7 days, Bliss
Procedure: as §1, §2, §3

[6] = tested on: pyogenic streptococcus 772; assay: as above; assay type: in vivo; details: pyogenic streptococcus 772, challenging dose 6.9 × 10^3 CFU/0.5 ml, deaths in 7 days, Bliss
Procedure: as §1, §2, §3

enterococcus32 [7] = assay: as above; assay type: in vivo, enterococcus; details: enterococcus32, challenging dose 5.4 × 10^4 CFU/0.5 ml, deaths in 7 days, Bliss
Procedure: as §1, §2, §3

staphylococcus aureus12 [8] = assay: as above; assay type: in vivo, staphylococcus aureus; details: staphylococcus aureus12, challenging dose 4.8 × 10^4 CFU/0.5 ml, deaths in 7 days, Bliss
Procedure: as §1, §2, §3

staphylococcus aureus16 [9] = assay: as above; assay type: in vivo, staphylococcus aureus; details: staphylococcus aureus16, challenging dose 5.2 × 10^3 CFU/0.5 ml, deaths in 7 days, Bliss
Procedure: as §1, §2, §3

staphylococcus aureus21 [10] = assay: as above; assay type: in vivo, staphylococcus aureus; details: staphylococcus aureus21, challenging dose 4.2 × 10^4 CFU/0.5 ml, deaths in 7 days, Bliss
Procedure: as §1, §2, §3

staphylococcus aureus76 [11] = assay: as above; assay type: in vivo, staphylococcus aureus; details: staphylococcus aureus76, challenging dose 5.8 × 10^4 CFU/0.5 ml, deaths in 7 days, Bliss
Procedure: as §1, §2, §3

12 strains of bacteria = assay: Protective effect on mouse infected with 12 strains of bacteria; assay type: in vivo; details: in words
Procedure: as §1, §2, §3

[12] = tested on: streptococcus pneumoniae3; assay: MIC against the infecting test organism; assay type: cell-based, streptococcus pneumoniae
[13] = tested on: streptococcus pneumoniae18; assay: MIC against the infecting test organism; assay type: cell-based, streptococcus pneumoniae
[14] = tested on: streptococcus pneumoniae57; assay: MIC against the infecting test organism; assay type: cell-based, streptococcus pneumoniae
[15] = tested on: pyogenic streptococcus 772; assay: MIC against the infecting test organism; assay type: cell-based
[16] = tested on: pyogenic streptococcus 102; assay: MIC against the infecting test organism; assay type: cell-based
[17] = tested on: pyogenic streptococcus 119; assay: MIC against the infecting test organism; assay type: cell-based
enterococcus32 [18] = assay: MIC against the infecting test organism; assay type: cell-based, enterococcus
staphylococcus aureus16 [19] = assay: MIC against the infecting test organism; assay type: cell-based, staphylococcus aureus
staphylococcus aureus76 [20] = assay: MIC against the infecting test organism; assay type: cell-based, staphylococcus aureus
staphylococcus aureus12 [21] = assay: MIC against the infecting test organism; assay type: cell-based, staphylococcus aureus
staphylococcus aureus21 [22] = assay: MIC against the infecting test organism; assay type: cell-based, staphylococcus aureus
[23] = tested on: streptococcus pneumoniae (112); assay: Clinical isolates, agar double dilution method; assay type: cell-based
[24] = tested on: pyogenic streptococcus (93); assay: Clinical isolates, agar double dilution method; assay type: cell-based
enterococcus (106) = assay: Clinical isolates, agar double dilution method; assay type: cell-based
[25] = tested on: staphylococcus aureus (155); assay: Clinical isolates, agar double dilution method; assay type: cell-based
S. epidermidis (115) = assay: Clinical isolates, agar double dilution method; assay type: cell-based
[26] = tested on: hemophilus influenzae (37); assay: Clinical isolates, agar double dilution method; assay type: cell-based
gonococcus (10) = assay: Clinical isolates, agar double dilution method; assay type: cell-based
[27] = tested on: Chlamydia Trachomatis B/TW-5/OT; assay: Chlamydia in vitro MIC, McCoy cells, immunofluorescence; assay type: cell-based; details: 48 hours
[28] = tested on: Chlamydia Trachomatis D/UW-3/Cx; assay: as above; assay type: cell-based; details: 48 hours
[29] = tested on: Chlamydia Pneumoniae CWL-029; assay: Chlamydia in vitro MIC, HEp-2 cells, immunofluorescence; assay type: cell-based; details: Chlamydia Pneumoniae CWL-029, HEp-2 cells, 72 hours
[30] = tested on: Mycoplasma Urealyticum and Mycoplasma Pneumoniae strains; assay: Mycoplasma in vitro MIC (U-PPLO broth); assay type: cell-based; details: determined 4 times, final MIC (24 h)
Procedure: 1. Test methods: adding U-PPLO 0.8 ml to each pore of aseptic 12-pore cell culture plate (adding 0.9 ml to inoculum control pore and 1.0 ml to medium control pore).
2. Add 10^4CCU/ml Uu inoculum 0.1 ml to each experimental pore. The final dose in the pore is 10^3CCU/ml (the medium control pore will not be added with inoculum).
3. Divide into 3 groups (100 μg/ml, 10 μg/ml and 1 μg/ml antibiotic stock solution), Use aseptic Tip to add antibiotic for test to each pore: 100 μl, 50 μl, 25 μl, 12.5 μl according to the double degradation concentration gradient. (The inoculum and medium control pores will not be added with the antibiotic, and meanwhile the antibiotic control pore is arranged.)
4. Blend all pores evenly. Seal the culture plate by tapes and place it in a 37[…] box for culture.
5. On 17-24 hours after the test, observe and record the Uu growth situation. When Uu inoculum control pore presents a positive growth, the minimal antibiotic concentration, which can suppress the growth of Uu, is the MIC of sample.

[31] = in vivo; cited from earlier work

With `COC1C(O)CC(=O)OC(C)C/C=C/C=C/C(OC2CCC(N(C)C)C(C)O2)C(C)CC(CC=O)C1OC1OC(C)C(OC2CC(C)(O)C(OC(=O)CC(C)C)C(C)O2)C(N(C)C)C1O` (stereo not drawn) [crystal of isovalerylspiramycin I, levoisovalerylspiramycin I] the ED50 [1] was 8.65 mg/kg, the ED50 [2] was 8.39 mg/kg and the ED50 [3] was 12.82 mg/kg. It also gave an ED50 [4] of 60.99 mg/kg, an ED50 [5] of 54.58 mg/kg and an ED50 [6] of 23.37 mg/kg. It also gave an ED50 (enterococcus32 [7]) of 62.11 mg/kg, an ED50 (staphylococcus aureus12 [8]) of 107.46 mg/kg and an ED50 (staphylococcus aureus16 [9]) of 21.33 mg/kg. The ED50 (staphylococcus aureus21 [10]) was 38.00 mg/kg, the ED50 (staphylococcus aureus76 [11]) was 22.26 mg/kg and the “protective effect (curative effect) on infected mouse” value (“protective effect (curative effect)” for short) (12 strains of bacteria; listed as crystalline compound of isovalerylspiramycin I) was “better protective effect”.

In the case of `COC1C(OC(C)=O)CC(=O)OC(C)C/C=C/C=C/C(OC2CCC(N(C)C)C(C)O2)C(C)CC(CC=O)C1OC1OC(C)C(OC2CC(C)(O)C(OC(=O)CC(C)C)C(C)O2)C(N(C)C)C1O` (stereo not drawn) [crystal of isovalerylspiramycin II, levoisovalerylspiramycin II], the ED50 [1] was 8.09 mg/kg, the ED50 [2] was 7.69 mg/kg and the ED50 [3] was 12.04 mg/kg. For the same molecule, the ED50 [4] was 58.00 mg/kg, the ED50 [5] was 49.94 mg/kg and the ED50 [6] was 21.90 mg/kg. It also gave an ED50 (enterococcus32 [7]) of 56.16 mg/kg, an ED50 (staphylococcus aureus12 [8]) of 104.67 mg/kg and an ED50 (staphylococcus aureus16 [9]) of 16.18 mg/kg. For the same molecule, the ED50 (staphylococcus aureus21 [10]; listed as crystal of isovalcrylspiramycin II) was 36.09 mg/kg, the ED50 (staphylococcus aureus76 [11]) was 18.71 mg/kg and the “protective effect (curative effect)” value (12 strains of bacteria) was “good protective effect”.

Molecule `CCC(=O)OC1CC(=O)OC(C)C/C=C/C=C/C(OC2CCC(N(C)C)C(C)O2)C(C)CC(CC=O)C(OC2OC(C)C(OC3CC(C)(O)C(OC(=O)CC(C)C)C(C)O3)C(N(C)C)C2O)C1OC` (stereo not drawn) [crystal of isovalerylspiramycin III, levoisovalerylspiramycin III] has an ED50 [1] of 8.68 mg/kg, an ED50 [2] of 6.45 mg/kg and an ED50 [3] of 11.08 mg/kg. For the same molecule, the ED50 [4] was 52.91 mg/kg, the ED50 ([5]; listed as crystal of isovaletylspiramycin III) was 49.94 mg/kg and the ED50 [6] was 22.81 mg/kg. The ED50 (enterococcus32 [7]) was 65.89 mg/kg, the ED50 (staphylococcus aureus12 [8]) was 105.24 mg/kg and the ED50 (staphylococcus aureus16 [9]) was 19.29 mg/kg. For the same molecule, the ED50 (staphylococcus aureus21 [10]) was 36.09 mg/kg, the ED50 (staphylococcus aureus76 [11]) was 18.71 mg/kg and the “protective effect (curative effect)” value (12 strains of bacteria) was “good protective effect”.

With acetyl spiramycin [reference compound] the ED50 [1] was 37.93 mg/kg, the ED50 [2] was 66.96 mg/kg and the ED50 [3] was 398.01 mg/kg. It also gave an ED50 [4] of 227.07 mg/kg, an ED50 [5] of 117.53 mg/kg and an ED50 [6] of 98.11 mg/kg. For the same molecule, the ED50 (enterococcus32 [7]) was 130.34 mg/kg, the ED50 (staphylococcus aureus12 [8]) was >500 mg/kg and the ED50 (staphylococcus aureus16 [9]) was 43.58 mg/kg. The ED50 (staphylococcus aureus21 [10]) was >500 mg/kg, the ED50 (staphylococcus aureus76 [11]) was 66.63 mg/kg and the MIC [12] was 0.5 µg/mL. It also gave an MIC [13] of 0.06 µg/mL, an MIC [14] of 1 µg/mL and an MIC [15] of 0.25 µg/mL. For the same molecule, the MIC [16] was 0.5 µg/mL, the MIC [17] was 0.5 µg/mL and the MIC (enterococcus32 [18]) was 1 µg/mL. The MIC (staphylococcus aureus16 [19]) was 1 µg/mL, the MIC (staphylococcus aureus76 [20]) was 1 µg/mL and the MIC (staphylococcus aureus12 [21]) was 2048 µg/mL. For the same molecule, the MIC (staphylococcus aureus21 [22]) was 2048 µg/mL, the MIC50 [23] was 0.12 µg/mL and the MIC90 [23] was >64 µg/mL. The MIC50 [24] was 0.25 µg/mL, the MIC90 [24] was >64 µg/mL and the MIC50 (enterococcus (106)) was 4 µg/mL. For the same molecule, the MIC90 (enterococcus (106)) was >64 µg/mL, the MIC50 [25] was 64 µg/mL and the MIC90 [25] was >64 µg/mL. The MIC50 (S. epidermidis (115)) was 64 µg/mL, the MIC90 (S. epidermidis (115)) was >64 µg/mL and the MIC50 [26] was 0.12 µg/mL. For the same molecule, the MIC90 [26] was 4 µg/mL, the MIC50 (gonococcus (10)) was 4 µg/mL and the MIC90 (gonococcus (10)) was 8 µg/mL. For the same molecule, the MIC range (gonococcus (10)) was 0.12 to 64 µg/mL, the MIC [27] was 4 µg/mL and the MIC [28] was 2 µg/mL. The MIC [29] was 0.5 µg/mL and the MIC [30] was 0.5 µg/mL.

For spiramycin, the “absolute bioavailability by oral administration” value [31] is given as 30˜40%.
